Source: patent publication US5880130A, “4,6-dianilino-pyrimidine derivatives, their preparation and their use as tyrosine kinase inhibitors” (Zeneca Limited, priority 1993, dated 1999)

Columns and labels:
[1] = biological target: T1, EGF receptor tyrosine kinase (Homo sapiens, UniProt P00533); assay: Test (a): in vitro inhibition of EGF receptor tyrosine kinase; format: biochemical, human (A-431 cells, derived from human vulval carcinoma); conditions: A-431 cell enzyme, [γ-32P]ATP/peptide phosphorylation, 25° C. 10 minutes
T1 construct: Receptor tyrosine kinase was obtained in partially purified form from A-431 cells; endogenous in cells; host or cells: A-431 cells (human vulval carcinoma); Triton X-100 solubilised membrane fraction
Procedure: (a) An in vitro assay which determines the ability of a test compound to inhibit the enzyme EGF receptor tyrosine kinase. Receptor tyrosine kinase was obtained in partially purified form from A-431 cells (derived from human vulval carcinoma) by procedures related to those described by Carpenter et al., J. Biol. Chem., 1979, 254, 4884, Cohen et al., J. Biol. Chem., 1982, 257, 1523 and by Braun et al., J. Biol. Chem., 1984, 259, 2051.
A-431 cells were grown to confluence using Dulbecco's modified Eagle's medium (DMEM) containing 5% fetal calf serum (FCS). The obtained cells were homogenised in a hypotonic borate/EDTA buffer at pH 10.1. The homogenate was centrifuged at 400 g for 10 minutes at 0°-4° C. The supernatant was centrifuged at 25,000 g for 30 minutes at 0°-4° C. […]
The test compound/EGF mixture solution (5 μl) was added to the test enzyme solution (10 μl) and the mixture was incubated at 0-4° C. for 30 minutes. […] Radioactivity present in the filter paper was measured using a liquid scintillation counter (Sequence A). […]
Receptor tyrosine kinase inhibition was calculated as follows: [formula]
The extent of inhibition was then determined at a range of concentrations of test compound to give an IC50 value.

[2] = tested on: human naso-pharyngeal cancer cell line KB; assay: Test (b): inhibition of EGF-stimulated growth of the cancer cell line KB; format: cell-based; conditions: 72 h, KB cell growth with EGF (10 ng/ml), 3 days, MTT
Procedure: (b) An in vitro assay which determines the ability of a test compound to inhibit the EGF-stimulated growth of the human naso-pharyngeal cancer cell line KB.
KB cells were seeded into wells at a density of 1×10^4 -1.5×10^4 cells per well and grown for 24 hours in DMEH supplemented with 5% FCS (charcoal-stripped). Cell growth was determined after incubation for 3 days by the extent of metabolism of MTT tetrazolium dye to furnish a bluish colour. Cell growth was then determined in the presence of EGF (10 ng/ml) or in the presence of EGF (10 ng/ml) and a test compound at a range of concentrations. An IC50 value could then be calculated.

liver hepatocyte growth = assay: Test (c): inhibition of TGFα-stimulated liver hepatocyte growth in rats; format: in vivo; conditions: Rattus norvegicus, male rats, usually oral, TGFα 400 μg/kg subcutaneously, BrdU uptake, approximate ED50
Procedure: (c) An in vivo assay in a group of male rats which determines the ability of a test compound (usually administered orally as a ball-milled suspension in 0.5% polysorbate) to inhibit the stimulation of liver hepatocyte growth caused by the administration of the growth factor TGFα (400 μg/kg subcutaneously, usually dosed twice, 3 and 7 hours respectively after the administration of the test compound).
In a control group of rats, the administration of TGFα causes on average a 5-fold stimulation of liver hepatocyte growth.
Cell-growth in the control and test animals is determined as follows:
On the morning of the day after the dosing of the test compound (or 0.5% polysorbate in the control group), the animals are dosed with bromodeoxyuridine (BrdU; 100 mg/kg intraperitoneally). The animals are killed four hours later and the livers are excised. […] Further tests were carried out using a range of doses of the test compounds to allow the calculation of an approximate ED50 value for the inhibition of liver hepatocyte proliferation as determined by inhibition of the uptake of BrdU.

[3] = tested on: transplanted human mammary carcinoma which expresses EGF receptor tyrosine kinase; conditions: athymic nude mice; Toi et al. 1990; cited from earlier work
[4] = tested on: another carcinoma which does not express EGF receptor tyrosine kinase; conditions: Toi et al. 1990; cited from earlier work

T1 sequence (P00533 25-1210): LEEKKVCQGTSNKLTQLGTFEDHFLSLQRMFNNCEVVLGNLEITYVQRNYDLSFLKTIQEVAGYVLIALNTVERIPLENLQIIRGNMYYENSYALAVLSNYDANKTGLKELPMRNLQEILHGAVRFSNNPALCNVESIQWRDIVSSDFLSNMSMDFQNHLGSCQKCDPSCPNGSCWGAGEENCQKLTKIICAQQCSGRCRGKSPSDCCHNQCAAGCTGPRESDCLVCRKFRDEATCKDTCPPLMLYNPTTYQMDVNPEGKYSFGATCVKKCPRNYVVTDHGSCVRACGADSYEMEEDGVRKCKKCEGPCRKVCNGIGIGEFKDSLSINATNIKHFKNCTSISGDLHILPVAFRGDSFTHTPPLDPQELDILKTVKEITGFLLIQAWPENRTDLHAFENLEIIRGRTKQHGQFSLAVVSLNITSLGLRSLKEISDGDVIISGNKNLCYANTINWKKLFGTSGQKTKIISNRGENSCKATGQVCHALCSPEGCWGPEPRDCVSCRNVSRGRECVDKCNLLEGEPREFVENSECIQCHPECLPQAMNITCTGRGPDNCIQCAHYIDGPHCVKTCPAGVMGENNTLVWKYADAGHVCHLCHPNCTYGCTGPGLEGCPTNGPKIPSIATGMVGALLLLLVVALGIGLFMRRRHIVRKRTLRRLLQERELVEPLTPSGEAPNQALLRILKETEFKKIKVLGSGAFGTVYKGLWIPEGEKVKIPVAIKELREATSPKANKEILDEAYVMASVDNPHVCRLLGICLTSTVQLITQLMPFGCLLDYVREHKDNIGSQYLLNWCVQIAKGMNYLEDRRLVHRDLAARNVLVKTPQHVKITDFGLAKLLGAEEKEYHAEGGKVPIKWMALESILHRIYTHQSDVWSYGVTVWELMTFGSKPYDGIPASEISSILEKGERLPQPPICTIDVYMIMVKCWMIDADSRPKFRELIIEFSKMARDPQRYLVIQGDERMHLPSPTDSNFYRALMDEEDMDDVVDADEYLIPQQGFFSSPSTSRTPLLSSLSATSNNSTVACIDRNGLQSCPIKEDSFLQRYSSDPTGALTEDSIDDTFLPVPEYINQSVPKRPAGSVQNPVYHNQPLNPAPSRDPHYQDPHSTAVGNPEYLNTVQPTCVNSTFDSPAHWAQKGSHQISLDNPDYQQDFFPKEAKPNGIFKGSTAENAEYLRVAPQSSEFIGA

| IC50 [1] | IC50 [2] | Structure (SMILES) | ED50 (liver hepatocyte growth) | effect on growth of transplanted human mammary carcinoma expressing EGF receptor tyrosine kinase [3] | effect on growth of another carcinoma which does not express EGF receptor tyrosine kinase [4] |
| --- | --- | --- | --- | --- | --- |
| 240 nM | 1100 nM | Cc1cccc(Nc2cc(Nc3cccc(C)c3)ncn2)c1 [4,6-di-(3'-methylanilino)pyrimidine] | < 12.5 mg/kg |  |  |
|  | 1070 nM | Cc1cccc(Nc2cc(Nc3ccc(OCCO)cc3)ncn2)c1 [4-[4'-(2-hydroxyethoxy)anilino]6-(3'-methylanilino)pyrimidine] | < 12.5 mg/kg |  |  |
| 10 nM | 310 nM | Cc1cccc(Nc2cc(Nc3ccc(OCC(O)CN(C)C)cc3)ncn2)c1 (stereo not drawn) [4-[4'-(3-dimethylamino-2-hydroxypropoxy)anilino]6-(3'-methylanilino)pyrimidine] |  |  |  |
|  |  | O=CN/C=C/c1cc(O)ccc1O [erbstatin] |  | specifically attenuates the growth | without effect on the growth |
